Experimental data from US12624068B2, “Exon skipping by peptide nucleic acid derivatives” (OliPass Corporation, priority 2016, dated 2026).
[C(1O2)] = modified PNA monomer acting as cytosine, C(pOq) type, 1O2; [A(5)] = modified PNA monomer acting as adenine, A(p) type, p=5; [G(6)] = modified PNA monomer acting as guanine, G(p) type, p=6; {Fethoc} = N-terminal Fethoc cap; {NH2} = C-terminal amide

Columns and labels:
[1] = system: SCN9A mRNA; assay: SCN9A nested qPCR by SYBR Green in PC3 cells; type: cell-based, human; details: 24 hours
Description: “SCN-ASO 7” was evaluated for its ability to inhibit the expression of the human SCN9A mRNA in PC3 cells by qPCR against a set of exon-specific primers as follows. [Cell Culture & ASO Treatment] PC3 cells grown in 60 mm culture dish containing 5 mL culture medium were incubated with “SCN-ASO 7” for 24 hours at 0 (negative control), 10, 100 or 1,000 zM. (2 culture dishes per concentration) [RNA Extraction] […] [cDNA Synthesis by One Step RT-PCR] […] NO: 78); and SCN-exon 9_reverse: (5'→3') […] NO: 79)]. […] [Nested qPCR Amplification] […] NO: 80); SCN-exon 4_reverse: (5'→3') […] NO: 81); SCN-exon 5_forward: (5'→3') […] NO: 82); SCN-exon 5_reverse: (5'→3') […] NO: 83); SCN-exon 6_forward: (5'→3') […] NO: 84); SCN-exon 6_reverse: (5'→3') […] NO: 85)]. The PCR reactions were probed with SYBR Green (Takara, Japan). […] “SCN-ASO 3” was evaluated for its ability to inhibit the expression of the full-length SCN9A mRNA in PC3 cells according to the protocol described in “SCN9A Example 2”, unless noted otherwise. “SCN-ASO 8” was evaluated for its ability to inhibit the expression of the full-length SCN9A mRNA in PC3 cells according to the protocol described in “SCN9A Example 2”, unless noted otherwise.

[2] = system: mdx mice; assay: Rotarod test in mdx mice; type: in vivo, mouse; details: 100 pmole/Kg subcutaneous 3× per week
Description: Given with the exon skipping potential, “DMD-ASO 1” was evaluated in mdx mice for its ability to improve muscle function by rotarod test as described below.
[Grouping] 6 weeks old male mdx mice were trained for rotarod test over a period of 2 weeks, and then randomly assigned into 3 groups of 0 (negative control), 100 and 1,000 pmole/Kg “DMD-ASO 1” based on individual scores by rotarod test in Day 0, i.e., the day of grouping. (N=10 per group)
[ASO Treatment] The injection solutions were prepared by serially diluting the ASO to 20 nM and 200 nM in PBS. Animals were subcutaneously administered with vehicle (PBS, negative control), 20 nM “DMD-ASO 1” (100 pmole/Kg), or 200 nM “DMD-ASO 1” (1,000 pmole/Kg) at 5 mL/Kg, 3× per week over a period of Day 0 to Day 21.
[Rotarod Test and Statistical Analysis] Mice were subjected to rotarod test on a rotarod apparatus (Model #47650, Ugo Basile) with an acceleration schedule of 4 rpm to 45 rpm over 60 seconds. The latency to fall (i.e., the duration that animal remained on the rotarod) was scored for each individual animal. Statistical significance was evaluated by student's t-test against the negative control group.

[3] = system: mdx mice; assay: Grip test in mdx mice chronically administered; type: in vivo, mouse; details: mdx mice, 10, 50 or 200 pmole/Kg subcutaneous chronic, Week 0 to 30
Description: “DMD-ASO 1” was evaluated by chronically administering to mdx mice for its ability to improve muscle function by grip test, to induce exon skipping, to upregulate the expression of the full-length dystrophin (i.e., dystrophin protein with the C-terminus encoded) by IHC, and to improve the muscular integrity by histopathology with H&E staining as described below.
(§1) [Grouping & ASO Treatment] Male mdx mice (7 weeks old) were randomly assigned to 4 groups of 0 (mdx negative control), 10, 50, and 200 pmole/Kg “DMD-ASO 1” based on individual grip strength scores by grip test. (N=12 per group) A satellite group of 12 male C57BL/6 mice (7 weeks old) was included in this study as the wild type negative control group for the full-length dystrophin expression level.
(§2) The 50 and 200 pmole/Kg group subcutaneously received “DMD-ASO 1” as dissolved in PBS, 2× per week until the final sacrifice in Week 43. In the meantime, the 10 pmole/Kg group subcutaneously received “DMD-ASO 1” initially 2× per week during Week 0 to 8, and 3× per week afterwards to increase the ASO exposure.
[Muscle Function by Grip Test] Muscle function was evaluated on a weekly basis by grip strength on a grip strength-meter (Cat. Number 47,200, Ugo Basile) according to the literature. [J. Appl. […] The grip strength scores by group were evaluated for statistical significance by student's t-test against the mdx negative control group.

[4] = system: mdx mice; assay: Unscheduled death, sacrifice or lymphoma in chronically treated mdx mice; type: in vivo, mouse
Description: as §1, §2
[Miscellaneous Findings] There were three cases of unscheduled sacrifice or death (Weeks 26, 39 and 43) in the mdx negative control group due to a large mass of muscular lymphoma developed most likely by chronic muscular inflammation.
“DMD-ASO 1”, “DMD-ASO 2” and “DMD-ASO 6” were evaluated for their physiological effects in male mdx mice by long term subcutaneous administration. In this evaluation the animals were not subjected to physical tests requiring muscular stress in order to keep the transcription of the dystrophin gene undisturbed by excessive muscular stimulation.
[Animals & Grouping] Male mdx mice (6 weeks old) were randomly assigned to 4 groups of the mdx negative control (no ASO treatment), “DMD-ASO 1” 50 pmole/Kg, “DMD-ASO 2” […], and “DMD-ASO 6” […] based on the body weight. (N=12-13 per group) 12 male C57BL/6 mice (6 weeks old) were adopted as the wild type (WT) negative control group.
[Injection Solutions & ASO Treatment] Aqueous mother stock solutions of the ASOs were serially diluted in PBS to prepare the injection solutions of 25 nM “DMD-ASO 1” for 50 pmole/Kg “DMD-ASO 1”, 5 nM “DMD-ASO 2” for “DMD-ASO 2” 10 pmole/Kg, and 5 nM “DMD-ASO 6” for “DMD-ASO 6” 10 pmole/Kg. The animals were subcutaneously administered with the injection solutions at 2 mL/Kg, 2× per week.

[5] = system: serum myoglobin; assay: Serum myoglobin level in mdx mice; type: in vivo; details: DMD-ASO 1 50 pmole/Kg, DMD-ASO 2 or DMD-ASO 6 10 pmole/Kg, 2× per week, Week 66
Description: [Terminal Sacrifice] In Week 48, the animals were subjected to terminal sacrifice for blood sampling. The blood samples were analyzed for the serum level of CK (Creatine Kinase Activity Assay Kit, Cat. Number ab155901, Abcam) and myoglobin (Myoglobin ELISA Kit, Cat. Number ab210965, Abcam) to assess the degree of muscle degradation according to the manufacturer's instructions. Muscle tissues were analyzed by western blot for the full-length dystrophin.
[Terminal Sacrifice] All the survived animals were sacrificed for blood sampling in Week 66 post the grouping. The blood samples were subjected to ELISA assays for serum creatine kinase (CK) and serum myoglobin as described in “DMD Example 6”.

How did the “decrease of expression levels of SCN9A exons 4-6 (SYBR Green)” value (from here on “decrease”) ([1]; PC3 cells, 10 zM) turn out when “Fethoc-AC(1O2)T-TA(5)C-G(6)CA-A(5)AA(5)-AC(1O2)A-A(5)-NH2 (ACTTACGCAAAAACAA; all peptide nucleic acid (PNA), [C(1O2)] at 2, 14, [A(5)] at 5, 10, 12, 16, [G(6)] at 7, 5' {Fethoc}, 3' {NH2}; peptide nucleic acid written N to C) [SCN-ASO 7]” was run?
Its value is about 70%.

What about the “decrease” value ([1]; PC3 cells, 100 zM) of the same substance?
The value was 40%.

What about the “decrease” value ([1]; PC3 cells, 1,000 zM) of the same substance?
The value was 20-30%.

What does the source list for “Fethoc-A(5)GA-G(6)CC(1O2)-TCA-A(5)AA(5)-T-NH2 (antisense AGAGCCTCAAAAT; Fethoc N-cap, C-terminal amide, chemistry not fully specified) [DMD-ASO 1]”?
muscle function by rotarod test [2]: showed a strong propensity of improvement, but was not significant; increase of grip strength compared to the mdx negative control group [3]: 30-50%; premature deaths (unscheduled death or sacrifice) ([4]; DMD-ASO 1 50 pmole/Kg, DMD-ASO 2 or DMD-ASO 6 10 pmole/Kg, subcutaneous 2× per week, 66 weeks): two premature deaths; cases of muscular lymphoma ([4]; chronic 10, 50 or 200 pmole/Kg up to Week 43): no cases of lymphoma; serum myoglobin level smaller than the mdx negative control group by [5]: 43%
